≈ marks a conversion by molar mass, not a printed value. Read-outs that look alike come from different tables or passages of the source.

One may read the solubility as the concentration that dissolves in the medium under given conditions.

In one data set the test system is B. subtilis 1A1. Put plainly: MIC broth dilution. It is filed as cell-based. The note with it: Bacillus subtilis, 1A1, B. subtilis 1A1. For orientation: Broth dilution looks for growth in wells or tubes with falling amounts of substance.
The next data set relates to B. anthracis sterne. Put plainly: microbe, parasite or virus in culture. It is filed as cell-based. Conditions: Bacillus anthracis.
Another data set has as its system MRSA NRS108. As to the kind of experiment: MIC broth dilution. The note with it: Staphylococcus aureus. The data set is classed as cell-based, Methicillin-resistant Staphylococcus aureus.
Another data set concerns MRSA NRS1. As to the kind of experiment: MIC broth dilution. The data set is classed as cell-based, Methicillin-resistant Staphylococcus aureus. The note with it: Staphylococcus aureus.
The test system of another data set is MSSA (ATCC 13709). As to the kind of experiment: MIC broth dilution. It is filed as cell-based, Staphylococcus aureus.
The subject of a further data set is E. faecalis (VRE BM4147). Put plainly: MIC broth dilution. The data set is classed as cell-based. Conditions: Enterococcus faecalis.
Another data set deals with E. faecium (VRE JM89). Put plainly: MIC broth dilution. The note with it: Enterococcus faecium. It is filed as cell-based.
The test system of the next data set is E. faecium E4So1. As to the kind of experiment: MIC broth dilution. It is filed as cell-based. The note with it: Enterococcus faecium.
Another data set relates to E. faecium MG1953. Put plainly: MIC broth dilution. It is filed as cell-based. The note with it: Enterococcus faecium.
The next data set relates to S. pneumoniae BAA225. Put plainly: MIC broth dilution. The data set is classed as cell-based. The note with it: Streptococcus pneumoniae.
The test system of the next data set is bacterial cells. Put plainly: Solid agar growth inhibition zone assay. Conditions: MHB agar, 5 μl spot, 16 hr to 24 hr incubation; strain not named. It is filed as cell-based. How it is done: This can be achieved in different assay format; bacteria growing on solid agar media or bacteria growing in broth such as for Example 5 and 6 (Minimal Inhibition Concentration).
For solid agar format, bacterial cells are first grown in a suitable media such as Mueller Hinton broth (MHB) until exponential phase (OD600<1.0). The cells are diluted back to OD600=0.02 in MHB, and evenly applied as a thin layer on the surface of a plate of solid growth media, such as MHB agar (about 0.1 ml onto a surface area of 100 cm^2). After the surface is dried, a 5 μl aliquot of a 2-fold serial dilution of NOVO4 (in 50% DMSO) is spotted onto the surface of the agar plate. After 16 hr to 24 hr of incubation, depending on the bacterial strain of interest, the diameter of zones of growth inhibition is measured.

Data set [1] relates to NIH3T3 mouse embryonic fibroblasts. As to the kind of experiment: Mammalian cytotoxicity assay (CellTiter 96 AQueous One). Conditions: NIH3T3 cells, 24 hr, highest tested 16 μg/ml. The data set is classed as cell-based. How it is done:
Mammalian cytotoxicity assays were performed using NIH3T3 mouse embryonic fibroblasts (ATCC CRL-1658), and cytotoxicity was measured using the CellTiter 96® AQueous One Solution Cell Proliferation Assay (Promega, Madison, Wis., Cat: G3582), according to the manufacturer's recommendations.
100× working stocks of 2-fold serial dilution of NOVO4 in DMSO were created in a 96 well format. The highest concentration of the 100× concentration (working stock) was prepared by adding […] of the stock solution of NOVO4 (10 mg/ml in DMSO) for every 0.68 μl of DMSO to well A02. 0.5 μl of this 100× stock was added for every 0.5 μl of DMSO in well A03 to create a total of 7 two-fold serial dilution series, from 1600 μg/ml to 25 μg/ml (from highest in well A02 to A08,). A DMSO control was also included (wells in column A01, and A12). […]
The plate was visually inspected under a dissecting microscope, and the absorbance at 490 nm was read using a Spectramax Plus Spectrophotometer, with wells A12, and B12 reserved as blanks. The signal of compound alone (well A11) was verified not to contribute to the absorbance at this wavelength. Next, 20 μl of the CellTiter 96® AQueous One Solution Cell Proliferation Assay (Promega, Madison, Wis., Cat: G3582) was added to each well, and the plate was read after 3 hr of incubation. […]

The next data set concerns MRSA and VRE. As to the kind of experiment: Effect of serum on NOVO4 MIC. It is filed as cell-based. Conditions: MIC without serum compared to media with 10% calf bovine serum. On the procedure: These studies follow the procedure for determining the MIC described above in Example 5. Briefly, two-fold serial dilution of the NOVO4 compound are added to the test cells of interest, MRSA and VRE, and the lowest concentration of compound that inhibits growth after a period of incubation is considered to be the MIC. To determine the effect of serum on the activity of NOVO4, MIC in the absence of serum is compared to MIC in media supplemented with 10% calf bovine serum (ATCC 30-2030).

A further data set deals with human red blood cells. It is filed as cell-based. How it is done: The effect of NOVO4 on the hemolysis of human red blood cells was also tested. A total of 10 ml of expired packed red blood cells from the blood bank was gently added to 80 ml of PBS (Phosphate buffered saline), and pelleted at 1000 g for 5 minutes at 4° C. The upper phase and buffy layer (white blood cells) were removed. The cells are repeatedly washed by gentle mixing with PBS, and centrifugation until the upper phase is clear. In the last wash, 40 ml of 1×PBS with 0.05% BSA was added to half of the red blood cells while 40 ml of 1×PBS without BSA was added to the other half. The upper phase of the last wash was removed to leave a total volume of about 10 ml. The concentration of the red blood cells was measured by using the spectrophometer at 600 nm. An aliquot of the cells are diluted to a final density OD600 of 24 in 1×PBS, and another to a final density OD600 of 24 in 1×PBS with 0.05% BSA.
The compound NOVO4 is two-fold serially diluted (similar to that described above for mammalian NIH3T3 cytotoxicity assay) as 100× concentration in DMSO, ranging from 0.4 μg/ml to 400 μg/ml. […] After thorough mixing, the A450 was read using a Spectramax Plus Spectrophotometer, using wells with only 1×PBS as blanks. […]

As to `CC1\C=C/C=C\C=C/C=C\C=C/C(OC2OCC(O)C(O)C2N)C(C)(O)/C=C/C=C\C=C/C=C/C(=O)NC1` (stereo not shown) [NOVO4], the MIC in the data set with B. subtilis 1A1 (MHB) is 0.06 to 1 µg/mL (≈ 0.114 to 1.91 µM); in the data set with B. subtilis 1A1 (MHB + 0.05% BSA), 0.125 µg/mL; in the data set on B. subtilis 1A1 (MHB + 10% FCS), 0.06 to 0.5 µg/mL; in the data set with B. anthracis sterne (MHB) it was 0.25 to 0.5 µg/mL (≈ 0.477 to 0.953 µM); with B. anthracis sterne (MHB + 0.05% BSA), 0.125 to 0.5 µg/mL; in the data set with B. anthracis sterne (MHB + 10% FCS) it was 0.25 to 0.5 µg/mL. The MIC was 1 to 8 µg/mL (≈ 1.91 to 15.2 µM) against MRSA NRS108 (MHB); 2 µg/mL with MRSA NRS108 (MHB + 0.05% BSA); 0.5 to 2 µg/mL with MRSA NRS108 (MHB + 10% FCS); 2 to 4 µg/mL (≈ 3.81 to 7.62 µM) against MRSA NRS1 (MHB); 0.5 µg/mL in the data set with MRSA NRS1 (MHB + 0.05% BSA); 1 µg/mL in the data set with MRSA NRS1 (MHB + 10% FCS). Also, the MIC in the data set on MSSA (ATCC 13709) (MHB + 0.05% BSA) was 0.25 µg/mL; in the data set on MSSA (ATCC 13709) (Staphylococcus aureus, MHB + 10% FCS), 0.25 to 0.5 µg/mL; in the data set with MSSA (ATCC 13709) (Staphylococcus aureus, MHB, read-out: MIC) it was 0.25 µg/mL (≈ 0.477 µM); against E. faecalis (VRE BM4147) (MHB) it was 2 to 4 µg/mL (≈ 3.81 to 7.62 µM); in the data set on E. faecalis (VRE BM4147) (MHB + 0.05% BSA) it was 1 to 2 µg/mL; with E. faecalis (VRE BM4147) (MHB + 10% FCS), 2 µg/mL. Also, the MIC in the data set on E. faecium (VRE JM89) (MHB) stood at 4 µg/mL (≈ 7.62 µM); in the data set on E. faecium (VRE JM89) (MHB + 0.05% BSA) it was 2 µg/mL; in the data set on E. faecium (VRE JM89) (MHB + 10% FCS) it was 2 µg/mL; in the data set on E. faecium E4So1 (MHB), 2 µg/mL (≈ 3.81 µM); in the data set on E. faecium E4So1 (MHB + 0.05% BSA), 1 µg/mL; with E. faecium E4So1 (MHB + 10% FCS), 1 µg/mL. Moreover, the MIC is 2 to 4 µg/mL (≈ 3.81 to 7.62 µM) against E. faecium MG1953 (MHB); 1 to 2 µg/mL with E. faecium MG1953 (MHB + 0.05% BSA); 2 µg/mL in the data set with E. faecium MG1953 (MHB + 10% FCS); 1 to 2 µg/mL (≈ 1.91 to 3.81 µM) in the data set with S. pneumoniae BAA225 (MHB); 1 to 2 µg/mL in the data set with S. pneumoniae BAA225 (MHB + 0.05% BSA); 2 to 4 µg/mL in the data set on S. pneumoniae BAA225 (MHB + 10% FCS). For the same compound, the “minimal concentration in which a 5 μL aliquot spotted onto a lawn of growing bacteria results in an observable zone of no growth” value in the data set with bacterial cells came out at 0.67 µg/mL. In [1], the LD50 is more than 16 µg/mL. For the same compound, the “effect of calf bovine serum on the MIC” value in the data set on MRSA and VRE is reported as “no significant effect”. The solubility is 300 µg/mL (≈ 572 µM) in “physchem” (aqueous with cosolvent or surfactant or cyclodextrin) and more than 5000 µg/mL in the data set “physchem” (organic solvent or mixture).

In the case of Triton X100, in the data set on human red blood cells, the “A450 (hemoglobin released)” value came out at 0.41 and the “lysis of red blood cells” value is “complete lysis”.
